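Following 48 hours of exposure in 96-well plates, responses at five concentrations were used to interpolate endpoints linearly. Here, GI50 denotes the concentration required for 50% inhibition of growth. The concentration for full growth arrest is given as TGI.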
Experiments:
Experiment in all cases: NCI anticancer screen, dose series, 48 h
[1] = test system: 786-0 renal
[2] = test system: A498 renal
[3] = test system: A549 NSCLC
[4] = test system: ACHN renal
[5] = test system: BT-549 breast
[6] = test system: CAKI-1 renal
[7] = test system: CCRF-CEM leukemia
[8] = test system: COLO 205 colon
[9] = test system: DU-145 prostate
[10] = test system: EKVX NSCLC
[11] = test system: HCC-2998 colon
[12] = test system: HCT-116 colon
[13] = test system: HCT-15 colon
[14] = test system: HL-60(TB) leukemia
[15] = test system: HOP-62 NSCLC
[16] = test system: HOP-92 NSCLC
[17] = test system: HS 578T breast
[18] = test system: HT29 colon
[19] = test system: IGROV1 ovarian
[20] = test system: K-562 leukemia
[21] = test system: KM12 colon
[22] = test system: LOX IMVI melanoma
[23] = test system: M14 melanoma
[24] = test system: MALME-3M melanoma
[25] = test system: MDA-MB-231 breast
[26] = test system: MDA-MB-435
[27] = test system: MOLT-4 leukemia
[28] = test system: NCI-H226 lung
[29] = test system: NCI-H23 lung
[30] = test system: NCI-H460 lung
[31] = test system: NCI-H522 lung
[32] = test system: NCI/ADR-RES ovarian
[33] = test system: OVCAR-3 ovarian
[34] = test system: OVCAR-4 ovarian
[35] = test system: OVCAR-5 ovarian
[36] = test system: OVCAR-8 ovarian
[37] = test system: PC-3 prostate
[38] = test system: RPMI-8226 leukemia
[39] = test system: RXF 393 renal
[40] = test system: SF-268 CNS
[41] = test system: SF-295 CNS
[42] = test system: SF-539 CNS
[43] = test system: SK-MEL-2 melanoma
[44] = test system: SK-MEL-28 melanoma
[45] = test system: SK-MEL-5 melanoma
[46] = test system: SK-OV-3 ovarian
[47] = test system: SN12C renal
[48] = test system: SNB-19 CNS
[49] = test system: SNB-75 CNS
[50] = test system: SR leukemia
[51] = test system: SW-620 colon
[52] = test system: T-47D breast
[53] = test system: TK-10 renal
[54] = test system: U251 CNS
[55] = test system: UACC-257 melanoma
[56] = test system: UACC-62 melanoma
[57] = test system: UO-31 renal

## C=C1C(=O)O[C@H]2[C@H]1CC/C(COC(=O)NCc1c[nH]c3ccc(OC)cc13)=C\CC[C@@]1(C)O[C@@H]21
[1]
  GI50: 0.445 µM
  TGI: 1.8 µM
[2]
  GI50: 13 µM
  TGI: 25.8 µM
[3]
  GI50: 3.26 µM
  TGI: 15 µM
[4]
  GI50: 0.729 µM
  TGI: 2.01 µM
[5]
  GI50: 0.441 µM
  TGI: 1.91 µM
[6]
  GI50: 1.46 µM
  TGI: 3.28 µM
[7]
  GI50: 0.152 µM
  TGI: 1.07 µM
[8]
  GI50: 1.22 µM
  TGI: 2.71 µM
[9]
  GI50: 1.35 µM
  TGI: 2.83 µM
[10]
  GI50: 2.07 µM
  TGI: 6.2 µM
[11]
  GI50: 5.77 µM
  TGI: 19 µM
[12]
  GI50: 0.268 µM
  TGI: 1.22 µM
[13]
  GI50: 1.34 µM
  TGI: 2.73 µM
[14]
  GI50: 0.255 µM
  TGI: 1.88 µM
[15]
  GI50: 10.6 µM
  TGI: 24.1 µM
[16]
  GI50: 1.79 µM
  TGI: 3.44 µM
[17]
  GI50: 2.75 µM
  TGI: 16.2 µM
[18]
  GI50: 1.02 µM
  TGI: 2.71 µM
[19]
  GI50: 2.55 µM
  TGI: 7.38 µM
[20]
  GI50: 0.279 µM
  TGI: 11.2 µM
[21]
  GI50: 3.54 µM
  TGI: 14 µM
[22]
  GI50: 1.19 µM
  TGI: 2.52 µM
[23]
  GI50: 1.36 µM
  TGI: 3.4 µM
[24]
  GI50: 2.14 µM
  TGI: 4.24 µM
[25]
  GI50: 1.92 µM
  TGI: 4.3 µM
[26]
  GI50: 1.27 µM
  TGI: 2.87 µM
[27]
  GI50: 1.32 µM
  TGI: 4.74 µM
[28]
  GI50: 14.9 µM
  TGI: 35.5 µM
[29]
  GI50: 3 µM
  TGI: 9.33 µM
[30]
  GI50: 3.76 µM
  TGI: 16.7 µM
[31]
  GI50: 0.89 µM
  TGI: 2.38 µM
[32]
  GI50: 7.87 µM
  TGI: 28.8 µM
[33]
  GI50: 0.695 µM
  TGI: 2.1 µM
[34]
  GI50: 2.14 µM
  TGI: 11.8 µM
[35]
  GI50: 2.14 µM
  TGI: 4.9 µM
[36]
  GI50: 1.61 µM
  TGI: 5.53 µM
[37]
  GI50: 1.07 µM
  TGI: 2.59 µM
[38]
  GI50: 0.266 µM
  TGI: 1.52 µM
[39]
  GI50: 1.18 µM
  TGI: 2.52 µM
[40]
  GI50: 2.55 µM
  TGI: 7.65 µM
[41]
  GI50: 10.4 µM
  TGI: 22.3 µM
[42]
  GI50: 1.53 µM
  TGI: 3.02 µM
[43]
  GI50: 6.27 µM
  TGI: 21.2 µM
[44]
  GI50: 1.52 µM
  TGI: 3.34 µM
[45]
  GI50: 1.38 µM
  TGI: 2.69 µM
[46]
  GI50: 12.7 µM
  TGI: 25.2 µM
[47]
  GI50: 1.42 µM
  TGI: 5.21 µM
[48]
  GI50: 4.76 µM
  TGI: 18.4 µM
[49]
  GI50: 11 µM
  TGI: 23.5 µM
[50]
  GI50: 0.331 µM
  TGI: 4.38 µM
[51]
  GI50: 0.45 µM
  TGI: 1.92 µM
[52]
  GI50: 1.89 µM
  TGI: 4.38 µM
[53]
  GI50: 1.95 µM
  TGI: 3.84 µM
[54]
  GI50: 3.39 µM
  TGI: 14 µM
[55]
  GI50: 2.02 µM
  TGI: 5.01 µM
[56]
  GI50: 1.7 µM
  TGI: 3.69 µM
[57]
  GI50: 1.74 µM
  TGI: 3.12 µM

## CC(C)=CCC/C(C)=C/CC/C(C)=C/[C@@H]1[C@@H](CO)[C@]1(C)CC/C=C(\C)CCC=C(C)C
[1]
  TGI: 42.9 µM
[2]
  TGI: > 100 µM
[3]
  TGI: > 100 µM
[4]
  TGI: 31.5 µM
[5]
  TGI: > 100 µM
[6]
  TGI: > 100 µM
[7]
  TGI: 45.2 µM
[8]
  TGI: > 100 µM
[9]
  TGI: > 100 µM
[10]
  TGI: 48.2 µM
[12]
  TGI: > 100 µM
[13]
  TGI: > 100 µM
[15]
  TGI: > 100 µM
[16]
  TGI: 38.2 µM
[17]
  TGI: > 100 µM
[18]
  TGI: > 100 µM
[19]
  TGI: 27.5 µM
[20]
  TGI: > 100 µM
[21]
  TGI: > 100 µM
[22]
  TGI: 23.8 µM
[23]
  TGI: > 100 µM
[24]
  TGI: > 100 µM
[25]
  TGI: 52.2 µM
[26]
  TGI: > 100 µM
[27]
  TGI: > 100 µM
[28]
  TGI: 44.5 µM
[29]
  TGI: > 100 µM
[30]
  TGI: > 100 µM
[31]
  TGI: 32.7 µM
[32]
  TGI: 55 µM
[33]
  TGI: > 100 µM
[34]
  TGI: > 100 µM
[35]
  TGI: > 100 µM
[36]
  TGI: 32.7 µM
[37]
  TGI: 56.5 µM
[38]
  TGI: 71.8 µM
[39]
  TGI: 72.8 µM
[40]
  TGI: 40.8 µM
[41]
  TGI: > 100 µM
[42]
  TGI: 59 µM
[43]
  TGI: > 100 µM
[44]
  TGI: > 100 µM
[45]
  TGI: > 100 µM
[46]
  TGI: > 100 µM
[47]
  TGI: > 100 µM
[48]
  TGI: > 100 µM
[49]
  TGI: > 100 µM
[50]
  TGI: 55 µM
[51]
  TGI: 66.9 µM
[52]
  TGI: > 100 µM
[53]
  TGI: > 100 µM
[54]
  TGI: > 100 µM
[55]
  TGI: > 100 µM
[57]
  TGI: 34.3 µM

## Cc1cc(N2CCOCC2)nc(N(CCCNc2ccnc3cc(Cl)ccc23)Cc2ccc3c(c2)OCO3)n1
[2]
  GI50: 1.51 µM
  TGI: 3.42 µM
[3]
  GI50: 1.61 µM
  TGI: 3.12 µM
[7]
  GI50: 0.355 µM
  TGI: 2.1 µM
[9]
  GI50: 1.43 µM
  TGI: 2.93 µM
[10]
  GI50: 2.29 µM
  TGI: 5.55 µM
[12]
  GI50: 0.464 µM
  TGI: 1.63 µM
[16]
  GI50: 1.56 µM
  TGI: 3.98 µM
[17]
  GI50: 1.97 µM
  TGI: 4.61 µM
[18]
  GI50: 1.34 µM
  TGI: 2.8 µM
[20]
  GI50: 0.436 µM
  TGI: 2.42 µM
[23]
  GI50: 1.4 µM
  TGI: 2.73 µM
[25]
  GI50: 1.68 µM
  TGI: 3.32 µM
[27]
  GI50: 0.598 µM
  TGI: 2.97 µM
[30]
  GI50: 1.45 µM
  TGI: 2.99 µM
[33]
  GI50: 0.253 µM
  TGI: 0.738 µM
[36]
  GI50: 1.85 µM
  TGI: 4.09 µM
[37]
  GI50: 1.62 µM
  TGI: 3.24 µM
[38]
  GI50: 1.45 µM
  TGI: 4 µM
[43]
  GI50: 1.26 µM
  TGI: 2.66 µM
[45]
  GI50: 1.54 µM
  TGI: 2.88 µM
[46]
  GI50: 2.29 µM
  TGI: 4.54 µM
[48]
  GI50: 4.18 µM
  TGI: 35.7 µM
[49]
  GI50: 1.5 µM
  TGI: 2.93 µM
[50]
  GI50: 0.186 µM
  TGI: 0.593 µM
[51]
  GI50: 1.44 µM
  TGI: 3.05 µM
[52]
  GI50: 1.41 µM
  TGI: 3.93 µM
[54]
  GI50: 0.936 µM
  TGI: 2.12 µM
[55]
  GI50: 1.99 µM
  TGI: 3.48 µM
